Assays:
[1] = target: T1, CAT-1 (carnitine acyltransferase 1) (Rattus norvegicus, UniProt Q63704); test: Secondary Screen--Inhibition of CAT-1 in intact cardiac myocytes (hypoxia-induced increase in long-chain acylcarnitines); assay type: cell-based; set-up: inhibition: dose or concentration left out as unconfirmed; conditions: isolated rat cardiac myocytes; for IC50: 50% inhibition of hypoxia-induced increase in long-chain acylcarnitines
T1 construct: This preparation is used as the isolated mitochondrial preparation; from tissue; host or cells: rat heart (atria removed), isolated mitochondria
T1 sequence (Q63704 1-772): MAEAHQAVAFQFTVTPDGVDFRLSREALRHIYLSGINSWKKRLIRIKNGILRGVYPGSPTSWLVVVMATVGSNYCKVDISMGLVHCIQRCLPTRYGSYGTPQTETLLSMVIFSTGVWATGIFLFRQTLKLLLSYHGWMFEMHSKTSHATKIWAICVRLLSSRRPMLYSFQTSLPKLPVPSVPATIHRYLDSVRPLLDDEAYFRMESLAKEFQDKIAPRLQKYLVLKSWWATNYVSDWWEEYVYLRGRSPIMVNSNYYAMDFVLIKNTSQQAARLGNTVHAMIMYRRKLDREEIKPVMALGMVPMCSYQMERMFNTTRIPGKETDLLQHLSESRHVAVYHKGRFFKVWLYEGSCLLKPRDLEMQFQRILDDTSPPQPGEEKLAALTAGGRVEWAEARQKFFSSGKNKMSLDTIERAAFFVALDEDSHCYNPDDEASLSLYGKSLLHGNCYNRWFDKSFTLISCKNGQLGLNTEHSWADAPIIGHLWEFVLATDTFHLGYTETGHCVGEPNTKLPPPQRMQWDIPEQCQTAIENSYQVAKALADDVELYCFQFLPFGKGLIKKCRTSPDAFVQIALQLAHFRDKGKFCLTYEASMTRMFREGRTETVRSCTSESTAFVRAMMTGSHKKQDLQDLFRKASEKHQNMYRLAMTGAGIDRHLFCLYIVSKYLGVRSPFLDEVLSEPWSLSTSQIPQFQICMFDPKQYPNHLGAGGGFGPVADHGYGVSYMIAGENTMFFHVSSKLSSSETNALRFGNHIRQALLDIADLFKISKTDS
Procedure: Secondary Screen--Inhibition of CAT-1 in intact Cardiac Myocytes
(a) Preparation of Isolated Rat Cardiac Myocytes
Four hearts are excised from anesthetized rats and perfused retrogradly via the Langendorf technique. Each heart receives 100 mL of Krebs (NaCl, 118.4 mM; KCL, 4.6 mM; NaH2 PO4, 1.0 mM; NaHCO3, 20 mM; MgSO4, 2 mM; CaCl2, 50 μM; glucose, 11.0 mM), 100 mL of Ca++ free Krebs and finally 100 mL of 0.5% collagenase (Boehringer Mannhelm, type 1) in Hepes (NaCl, 115 mM; KCl, 5 mM; sucrose, 35 mM; glucose, 10 mM; Hepes, 10 mM; taurine, 4 mM; MgSO4, 2 mM; CaCl2, 50 μM). After these perfusions, the hearts are chopped into pieces, approx. 0.5 cm×0.5 cm and placed in four 125 mL plastic bottles along with 25 mL of collagenase/Hepes situated in a water bath maintained at 35° C. The pieces of cardiac tissue in each bottle are agitated by using a Harvard respirator connected to four glass syringes, which sucks the tissue up and down each tube during each respiratory cycle. After fifteen minutes, the collagenase/Hepes is removed and replaced with fresh collegenase/Hepes and the process repeated. The collegenase/Hepes from the subsequent fifteen minute harvests are centrifuged at 500 g to pellet the cells which are then resuspended in Hepes buffer. After six harvests, all cells are pelleted, resuspended in 2×26.5 mL of Hepes plus BSA (350 mg) and layered on top of 2×percoll gradients (21.15 mL percoll, 2.35 mL NaCl, 6 drops acetic acid). This is centfifuged at 3000 g for eight minutes forming a percoll gradient which results in viable cells being separated from damaged cells. The viable cells are removed, washed with Hepes and finally resuspended in 25 mL of Hepes.
The isolated cardiac myocytes (2 mL; approximately 1×10^6 cells) are separated into six glass pods. Into four of these are placed selected concentrations of the compound to be tested, and the cells are incubated for twenty minutes, after which the pods are centrifuged at 300 g for three minutes. 300 μL of normoxic Hepes is placed in one of the pods not containing compound and then all pods are placed in a hypoxic chamber (N2 atmosphere). Oxygen is fed via small bore steel tubes to the pod containing the normoxic buffer, while the other five pods receive pre-purified argon (99.998% pure). After two minutes, Hepes (pre-gassed with argon for at least twelve hours) is fed into the five hypoxic pods. This hypoxic environment (pO2 <10 mm Hg) is maintained for twenty minutes, after which the cells and pods are frozen by contact with a metal block precooled in liquid N2. The pods are then removed from the chamber and stored at -70° C. The carnitine assay is performed, as described below in (c), to determine the amount of long-chain acylcarnitine in the cells from the normoxic, hypoxic and hypoxic plus compound samples. […] Thus the IC50 in this screen is the concentration of test compound which produces a 50% inhibition of the hypoxia-induced increase in long-chain acylcarnitines.
(c) Long-chain Acylcarnitine Assay.
The frozen cell samples are thawed, mixed and homogenized with 40 μL of 70% PCA. The homogenate is transferred to eppendorf tubes while the homogenization tube and the glass pod is rinsed with 500 μL of 7% PCA, with the rinse being added to the eppendorf tube. This is then centrifuged at 1000 g for two minutes to pellet the precipitate (containing the long-chain acylcarnitine) and the supernatant is discarded. The pellet is washed twice with 500 μL of 7% PCA, the supernatants being discarded. The pellet is then hydrolyzed (to separate the acyl unit from carnitine to yield free carnitine) by the addition of 200 μL of aleionized H2 O and 50 μL of 5N KOH and incubated at 70° C. for ninety minutes.

[2] = target: T1, CAT-1 (carnitine acyltransferase 1); test: Primary Screen--Inhibition of CAT-1 in isolated mitochondria; assay type: biochemical; conditions: rat heart mitochondria, reduction of palmitoyl carnitine formation by 50%; read-out: Primary Screen IC50

## CCCc1c(OCCCOc2ccc(C(=O)C(=O)O)cc2)ccc(C(C)=O)c1O [Example 257, 4-[3-(4-acetyl-3-hydroxy-2-propylphenoxy)propoxy]-alpha-oxobenzeneacetic acid]
[1]
  IC50: 0.1 µM
[2]
  IC50: 380 nM

## O=C(O)C(=O)c1ccc(OC/C=C/c2ccc3ccccc3c2)cc1 [Example 96, (E)-4-[[3-(2-naphthalenyl)-2-propenyl]oxy]-alpha-oxobenzeneacetic acid]
[1]
  IC50: 7 µM
[2]
  IC50: 65 nM

## CCC(C)(C)C(=O)OCc1cccc(C)c1OCCOc1ccc(/C(=N/OC)C(=O)O)cc1 [Example 304, (Z)-4-[2-[2-[(2,2-Dimethyl-1-oxobutoxy)methyl]-6-methylphenyloxy]ethoxy]-alpha-methoxyiminobenzeneacetic acid]
[1]
  IC50: 5 µM
[2]
  IC50: 3300 nM

## O=C(O)C(=O)c1ccc(OCC(=O)c2cccc3ccccc23)cc1 [Example 284, 4-[2-(1-naphthalenyl)-2-oxoethoxy]-alpha-oxobenzeneacetic acid]
[1]
  IC50: 0.8 µM
[2]
  IC50: 30 nM

## CO/N=C(\C(=O)O)c1ccc(OCCOc2ccc3ccccc3c2)s1 [Example 307, (E)-alpha-(methoxyimino)-5-[2-(2-naphthalenyloxy)ethoxy]-2-thiopheneaceticacid]
[1]
  IC50: 5 µM
[2]
  IC50: 1500 nM

## O=C(OCC(O)CO)C(=O)c1ccc(OCCOc2ccc3ccccc3c2)s1 (racemic) [Example 5, rac.-5-[[2-(2-naphthalenyloxy)ethyl]oxy]-alpha-oxo-2-thiopheneacetic acid 2,3-dihydroxypropyl ester]
[1]
  IC50: 0.25 µM
[2]
  IC50: 40 nM

## O=C(O)C(=O)c1ccc(OCCOc2ccc3ccccc3c2)c([N+](=O)[O-])c1 [Example 179, 4-[2-(2-naphthalenyloxy)ethoxy]-3-nitro-alpha-oxobenzeneacetic acid]
[1]
  IC50: 8 µM
[2]
  IC50: 200 nM

## O=C(O)C(=O)c1ccc(OCCOc2ccc3ccccc3c2)cc1Cl [Example 187, 2-chloro-4-[2-(2-naphthalenyloxy)ethoxy]-alpha-oxobenzeneacetic acid]
[1]
  IC50: 9 µM
[2]
  IC50: 300 nM

## CN(O)C(=O)C(=O)c1ccc(OCCOc2ccc3ccccc3c2)cc1 [Example 299, N-hydroxy-N-methyl-4-[2-(2-naphthalenyloxy)ethoxy]-alpha-oxobenzeneacetamide]
[1]
  IC50: 8 µM
[2]
  IC50: 1900 nM

## O=C(O)C(=O)c1ccc(OCCCn2c(=O)c3ccccc3c3ccccc32)cc1 [Example 262, 4-[3-(5,6-dihydro-6-oxo-5-phenanthridinyl)propoxy]-alpha-oxobenzeneacetic acid]
[1]; hypoxia
  inhibition: 99%
[2]
  IC50: 1000 nM

## O=C(O)C(=O)c1ccc(OCCOC2CCCCCCC2)cc1 [Example 101, 4-[[2-(cyclooctyloxy)ethyl]oxy]-alpha-oxobenzeneacetic acid]
[1]
  IC50: 50 µM
[2]
  IC50: 900 nM

## O=C(O)C(=O)c1ccc(CCCOc2ccc3ccccc3c2)cc1 [Example 143, 4-[3-(2-naphthalenyloxy)propyl]-alpha-oxobenzeneacetic acid]
[1]
  IC50: 12 µM
[2]
  IC50: 2700 nM

## O=C(O)C(=O)c1ccc(C(=O)NCCOc2ccc3ccccc3c2)cc1 [Example 177, 4-[[[2-(2-naphthalenyloxy)ethyl]amino]carbonyl]-alpha-oxobenzeneacetic acid]
[1]
  IC50: 25 µM
[2]
  IC50: 400 nM

## O=C(O)C(=O)c1ccc(OCCOc2ccc3ccccc3c2)c(Cl)c1 [Example 185, 3-chloro-4-[2-(2-naphthalenyloxy)ethoxy]-alpha-oxobenzeneacetic acid]
[1]
  IC50: 12 µM
[2]
  IC50: 80 nM

## O=C(O)C(=O)c1ccc(OCC(=O)c2ccc3ccccc3c2)cc1 [Example 157, 4-[2-(2-naphthalenyl)-2-oxoethoxy]-alpha-oxobenzeneacetic acid]
[1]
  IC50: 0.3 µM
[2]
  IC50: 50 nM

## O=C(O)C(=O)c1ccc(OCCOc2ccc3ccccc3c2)s1 [Example 4, 5-[[2-(2-naphthalenyloxy)ethyl]oxy]-alpha-oxo-2-thiopheneacetic acid]
[1]
  IC50: 1 µM
[2]
  IC50: 50 nM

Source: patent publication US5344843A, “Cat-1 inhibitors, pharmaceutical compositions and methods of use” (Hoffman-La Roche Inc., priority 1992, dated 1994)
